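48-hour exposure; five concentrations; linearly interpolated endpoints. GI50 is the concentration that inhibits growth by half.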 Calls of active or inactive are those of the source. No stated cut-off is given here; in the data, active = GI50 up to about 1.1 µM and inactive = higher. Peptide text beside a SMILES is read from it.
How the values were obtained:
Test in all cases: NCI-60 cell line screen, 48 h
Malme-3M = system: Malme-3M
CAKI-1 = system: CAKI-1
LOX IMVI = system: LOX IMVI
NCI-H522 = system: NCI-H522
HCT-116 = system: HCT-116
COLO 205 = system: COLO 205
NCI-H23 = system: NCI-H23
MDA-MB-231 = system: MDA-MB-231
UO-31 = system: UO-31
OVCAR-8 = system: OVCAR-8
NCI/ADR-RES = system: NCI/ADR-RES
SF-539 = system: SF-539
BT-549 = system: BT-549
NCI-H226 = system: NCI-H226
HOP-92 = system: HOP-92
EKVX = system: EKVX
T47D = system: T47D
SNB-75 = system: SNB-75
ACHN = system: ACHN
HCC 2998 = system: HCC 2998

Measured: GI50

CCC(C)C(NC(=O)C(NC(=O)C(CC(N)=O)NC(=O)CN)C(C)O)C(=O)NC(C(=O)NC(C)C(=O)NC(C(=O)NC(CCC(=O)O)C(=O)NC(CC(C)C)C(=O)NC(CC(=O)O)C(=O)NC(C(=O)NC(Cc1ccc(O)cc1)C(=O)N1CCCC1C(=O)O)C(C)O)C(C)C)C(C)C (stereo not given) (H-GNTIVAVELDTYP-OH; configuration not given here)
inactive: Malme-3M > 50 µM | CAKI-1 > 50 µM | LOX IMVI > 50 µM | NCI-H522 > 50 µM | HCT-116 > 50 µM | COLO 205 > 50 µM | NCI-H23 > 50 µM | MDA-MB-231 18.9 µM | UO-31 > 50 µM | OVCAR-8 > 50 µM | NCI/ADR-RES > 50 µM | SF-539 > 50 µM | BT-549 > 50 µM | NCI-H226 > 50 µM | HOP-92 > 50 µM | EKVX > 50 µM | T47D > 50 µM | SNB-75 > 50 µM | ACHN > 50 µM | HCC 2998 > 50 µM

From ChEMBL document CHEMBL1201862, “PubChem BioAssay data set” (2004)
